Reference: patent US5071983A, “Therapeutic nucleosides” (priority 1989, dated 1991)
pIC50: −log10 of the molar value. Several values for one entry are separate records, joined by “and”; a condition that tells them apart may be missing. Equal entries are not always repeated. Where two headings read alike, the source gives them in different places.

How the values were obtained:
HIV [1] = assay: Antiviral activity against HIV (method of Mitsuya et al.); format: cell-based; conditions: Human immunodeficiency virus 1; for minimal effective concentration: no % protection printed, read-out: Concentration at which found to have activity against HIV; for pIC50: HIV
Experimental: The compounds of Examples 1-6 were tested for activity against HIV generally in accordance with the method described by Mitsuya et al, Proc. Nat. Acad. Sci, USA Vol 82, pp 7096-7100, October 1985 and found to have activity against HIV at the following concentrations: […]

[2] = Urinary and fecal excretion after oral dosing of rats; format: in vivo, male Sprague Dawley rats; conditions: rat
Experimental: (§1) Using an intragastric needle, sexually mature, male Sprague Dawley rats were given single 25 mg/kg oral doses of DDC or equimolar doses of DDC Congeners.
For urinary and fecal excretion studies, each compound was administered to two animals, which were housed separately in metabolic cages and urine and feces were separated and collected during the 0-24, 24-48 and 48-72 hour intervals post dose. To prevent bacterial growth, sodium azide was placed in the urine collection vessel so that the final concentration, after 24 hours of urine collection, would be about 0.02%. Feces were weighed, homogenized in 9 volumes (9 ml/g) deionized water and centrifuged (12,000×g, 4° C., 30 min). Prior to high-performance liquid chromatographic (HPLC) analysis for drug and metabolite content, samples of the fecal homogenate supernatants and urines were filtered (0.22 μm filters).
(§2) A dual-pump HPLC system was used to analyse samples of urine, feces, plasma and brain for DDC and its congeners and their metabolites. The solvent for pump A was 25 mM phosphoric acid, buffered to pH 7.2 with ammonium hydroxide. The solvent for pump B was 60% acetonitrile in solvent A. Samples were injected onto an Adsorbospher phenyl column (4.6×250 mm, 5 micron spherical packing) and eluted at a flow rate of 1 ml/minute using linear increases in solvent B from 0 to 15% over 15 minutes and from 15 to 100% over 21 minutes, with 5 minute purge (100% B) and 15 minute restore (0% B) period between injections. The absorbance of the column effluent was monitored at 273 and 254 nm. Concentrations of compounds were determined by comparing appropriate peak areas to standard curves obtained from analysis of aqueous solutions of authentic standards. Compounds were identified by comparing retention times and ratios of peak areas at 273 and 254 nm to those of authentic standards.

[3] = Concomitant plasma and brain levels of DDC and its congeners after oral dosing of rats; format: in vivo, male Sprague Dawley rats; conditions: rat; for Levels of DDC in plasma and brain relative to a dose of DDC, 0.5 hour: 0.5 hour post dose; for Plasma and brain concentrations of DDC relative to a dose of DDC, 2 hours: 2 hours post dose; for Amounts of analogues still containing the N4-amide in plasma and brain / Plasma and brain levels of DDC relative to DDC dosing: oral dose equivalent to 25 mg DDC, 0.5 and 2 hours
Experimental: as §1
For concomitant plasma and brain level studies, each compound was administered to two animals. Animals were sacrificed by decapitation, one of each pair at 30 minutes and the other at 2 hours post dose. Blood was collected into heparinized cups and plasma was prepared. Samples of each plasma were ultrafiltered (Amicon Centrifree Micropartition Systems) prior to HPLC analysis. Brains were removed, weighed, homogenized in 2 volumes (2 ml/g) deionized water and centrifuged (12,000×g 4° C., 30 min). The resulting supernatants were filtered (0.22 μm filters) prior to HPLC analysis.
as §2

HIV [4] = conditions: known from EP 0216511; cited from earlier work
[5] = in vivo, po, 25 mg/kg, 1440 min

With `CC(C)(C)C(=O)OC[C@@H]1CC[C@H](n2ccc(N)nc2=O)O1` [Example 6, 2',3'-Dideoxy-5'-O-pivaloylcytidine] the inhibition at 6.4 µM (HIV [1]; 6.4 μM, read-out: % Protection) was 88%, the “Increase of oral bioavailability of DDC” value ([2]; in vivo, po) was 2.5 fold and the “Levels of DDC in plasma and brain relative to a dose of DDC, 0.5 hour” value ([3]; oral) was “higher levels of DDC in the plasma and brain”. The “Plasma and brain concentrations of DDC relative to a dose of DDC, 2 hours” value ([3]; oral) was “lower than those observed after a dose of DDC”.
With `CC(C)(C)C(=O)Nc1ccn([C@H]2CC[C@@H](COC(=O)C(C)(C)C)O2)c(=O)n1` [Example 4, 2',3'-dideoxy-N^4,5'-O-dipivaloylcytidine] the minimal effective concentration (HIV [1]) was 25 µM, the “Amounts of analogues still containing the N4-amide in plasma and brain” value [3] was “Much higher amounts” and the “Plasma and brain levels of DDC relative to DDC dosing” value [3] was “lower than what was observed after dosing with DDC”.
`CCC(=O)Nc1ccn([C@H]2CC[C@@H](CO)O2)c(=O)n1` [Example 2, 2',3'-Dideoxy-N^4-propionylcytidine] gave a pIC50 (HIV [1]) of 4.44.
In the case of `CC(C)(C)C(=O)Nc1ccn([C@H]2CC[C@@H](CO)O2)c(=O)n1` [Example 5, 2',3'-dideoxy-N^4-pivaloylcytidine], the inhibition at 100 µM (HIV [1]; 100 μM, read-out: % Protection) was 42%, the “Amounts of analogues still containing the N4-amide in plasma and brain” value [3] was “Much higher amounts” and the “Plasma and brain levels of DDC relative to DDC dosing” value [3] was “lower than what was observed after dosing with DDC”.
Work on `Nc1ccn([C@H]2CC[C@@H](CO)O2)c(=O)n1` [DDC, 2',3'-Dideoxycytidine, reference compound] yielded an inhibition at 16 µM (HIV [1]; 16 μM, read-out: % Protection) of 99%, a dose excreted at 24 h ([2]; feces, po, 25 mg/kg, rat 1, oral 25 mg/kg, compound detected: DDC, read-out: Percent Dose Excreted as DDC, 0-24 hr Feces) of 12% and a dose excreted ([2]; feces, po, 25 mg/kg, two rats, oral 25 mg/kg, feces, DDC, read-out: Average fecal excretion of parent compound) of 28.1%. The “Average fecal excretion of 2',3'-dideoxyuridine” value ([2]; in vivo, po, 25 mg/kg) was 1.9 % of the dose, the “Compound Detected, 24-72 hr Feces” value ([2]; in vivo, po, 25 mg/kg) was “none” and the Gastrointestinal absorption ([2]; in vivo, po, 25 mg/kg) was “limited gastrointestinal absorption”. For the same compound, the “Percent Dose Excreted as ddU, 0-24 hr Feces” value [2, 5] was 1.1 Percent Dose, the “Percent Dose Excreted as ddU, 0-24 hr Urine (second entry so headed)” value [2, 5] was 2.6 Percent Dose and the “Percent Dose Excreted as DDC, 0-24 hr Urine” value ([2]; single oral dose 25 mg/kg DDC or equimolar, individual rats, compound detected: DDC, 25 mg/kg, 1440 min) was 31.6 Percent Dose. The “Percent Dose Excreted as DDC, 24-72 hr Urine” value ([2]; single oral dose 25 mg/kg DDC or equimolar, individual rats, compound detected: DDC, 25 mg/kg, 4320 min) was 6.23 Percent Dose and 1.5 Percent Dose, the dose excreted at 24 h ([2]; urine, po, 25 mg/kg, rat 2, oral 25 mg/kg DDC, compound detected: DDC, read-out: Percent Dose Excreted as DDC, 0-24 hr Urine (second entry so headed)) was 32.2% and the dose excreted at 24 h ([2]; urine, po, 25 mg/kg, single oral dose 25 mg/kg DDC or equimolar, individual rats, compound detected: DDC, read-out: Percent Dose Excreted as DDC, 0-24 hr Urine) was 46.6%. The dose excreted at 72 h ([2]; urine, po, 25 mg/kg, two rats, oral 25 mg/kg DDC or equimolar, urine 72 hours, read-out: Average urinary excretion as DDC) was 43%, the “Absorption and hydrolysis (plasma level data)” value ([3]; oral) was “absorption of DDC although incomplete, may be more prolonged” and the Anti-HIV activity (HIV [4]) was “potent anti-HIV activity”.
With `CCC(=O)Nc1ccn([C@H]2CC[C@@H](COC(=O)CC)O2)c(=O)n1` [Example 1, 2',3'-Dideoxy-N^4, 5'-O-dipropionylcytidine] the minimal effective concentration (HIV [1]) was 25 µM, the “Amounts of analogues still containing the N4-amide in plasma and brain” value [3] was “Much higher amounts” and the “Plasma and brain levels of DDC relative to DDC dosing” value [3] was “lower than what was observed after dosing with DDC”.
For `CCC(=O)OC[C@@H]1CC[C@H](n2ccc(N)nc2=O)O1` [Example 3, 2',3'-Dideoxy-5'-O-propionylcytidine], the pIC50 (HIV [1]) was 5.80, the “Levels of DDC in plasma and brain relative to a dose of DDC, 0.5 hour” value ([3]; oral) was “higher levels of DDC in the plasma and brain” and the “Plasma and brain concentrations of DDC relative to a dose of DDC, 2 hours” value ([3]; oral) was “lower than those observed after a dose of DDC”.
